Here are results for one compound from patent US20070117864A1, “Composition for preventing and treating hepatoma” (Tokyo University of Agr. & Tech. TLO Co., Ltd., priority 2003, published 2007).

Marks after values point to notes of the source that are not given here.

One assay concerns AH109A cells. Briefly: proliferative activity of hepatoma cells by [3H]thymidine incorporation. The format is cell-based, rat. The procedure: The proliferative activity of the AH109A cells was evaluated by measuring the incorporation of [^3H]thymidine (20 Ci/mmol, New England Nuclear, Boston, USA) into acid-insoluble fraction, namely, DNA [Yagasaki K., Tanabe T., Ishihara K., and Funabiki R., (1992) Modulation of the proliferation of cultured hepatoma cells by urea cycle-related amino acids. In: Murakami, H., Shirahata S., and Tachibanana H., (ed.) Animal Cell Technology: Basic and Applied Aspects. Vol. 4 (pp. 257-263). Kluwer Academic Publisher, Dordrecht/Boston/London]. […]
The plate was washed twice with 400 μl of 10% TCA; the wash solution was then recovered in Maruemu tubes, and was again subjected to centrifugally separation for 5 minutes at 3000 rpm (1500×g), 4° C., and then solubilized in 0.2N NaOH in 0.1% SDS. was added to the 48-well plate and the cells remaining in the Maruemu tubes at the respective rates of 150 μl and 50 μl, and these were allowed to stand for 30 minutes inside an incubator at 37° C., to dissolve the cells completely. […] 5 ml of an NT scintillator (700 ml of toluene, 300 ml of nonion, 4 g of DPO) was added, and 150 μl of 1N HCl was further added thereto, and it was confirmed that the liquid of the preparation thoroughly shaken had become transparent; then, the radioactivity of the preparation was measured with a liquid scintillation spectrophotometer (LS6500; Beckman, Fullerton, Calif., USA). […]
A general note: Dividing cells build labelled thymidine or BrdU into new DNA.

Assay [1] is described as follows: fecal steroid excretion in hepatoma-bearing rats. The format is in vivo, rat. The conditions noted are these: for Steroid excretion Bile acids / Steroid excretion Neutral sterols: feces, final two days, mean ± SEM of 11 rats. The procedure:
Male Donryu rats of four weeks old were purchased from NRC Haruna, Gumma, Japan, and were preliminarily fed for 6 days in quintuple cages in a room with a controlled environment with light period of 8:00 to 20:00, room temperature of 22±1° C., and relative humidity of 60±5%. For the first 3 days, the animals were fed ad libitum with a stock pellet diet (CE-2; CLEA Japan, Tokyo), and for the next 3 days, they were fed a basal diet containing 20% milk casein (20C) (Table 1) ad libitum together with tap water in a glass container. Following the completion of this preparatory raising, the rats were divided into three groups (11 animals per group) with equal average body weights of the respective groups were equal, and 1.0×10^7 of AH109A cells suspended in PBS (−) were transplanted in the back of all the rats. From the time immediately after transplantation, in the respective experimental groups, the animals were fed the experimental diets shown in Table 2.
During the experimental period, the body weight, food intake and solid tumor size (sum of length, width and height) were measured everyday. On the day that the animals were killed, animals were deprived of experimental diets at 9:00, but freely given water until they were killed 4 hours later. Blood was collected from carotid, and the liver and solid tumors were excised. The collected blood was allowed to stand for approximately 2 hours at room temperature, and then centrifuged for 10 minutes at 3000 rpm (1750×g), 4° C., to obtain serum. This blood serum was frozen and stored at −20° C. The livers and solid tumors were washed with physiological saline, blotted on filter paper, and weighed. Furthermore, feces from the 19th to 21st days after transplantation were collected, and these feces were frozen and stored at −20° C. for the measurement of the amounts of steroids excreted from the body.
The amounts of fecal steroids, neutral sterol (NS) and bile acid (BA), excreted into feces were measured. The feces were dried at 60° C., and the dry weight was measured; then, the feces were pulverized using a mixer and a mortar and pestle. Approximately 100 mg of feces was precisely weighed and placed in a screw-capped test tube, and then was saponified for 1 hour at 70° C. by adding 1.5 ml of 4 N potassium hydroxide solution and 1 ml of ethanol. The NS was extracted by transferring the n-hexane layer to a test tube by adding 3 ml of n-hexane to a test tube, shaking this mixture and then subjecting to centrifugal separation at 3000 rpm (1750×g) for 10 minutes. The same operation was performed three times. Subsequently, with […] of distilled water to dilute potassium hydroxide concentration thereof to 1.2 N, and the mixture was subjected to a high-pressure treatment (autoclaved) for 3 hours at 121° C., to deconjugate the conjugated BA. After the preparation was allowed to stand until cool, BA was extracted by adding 3 ml of diethyl ether after adjusting the pH of the solution to 1 with 0.8 ml of hydrochloric acid, and the resulting mixture was shaked; then, subjecting this preparation to centrifugal separation for 10 minutes at 3000 rpm (1750×g), to transfer the diethyl ether layer to a test tube. This operation was performed three times.
The n-hexane extract was dried; then, was added with 0.4 ml of isopropanol and 1.6 ml of 10% Triton X-100. to dissolve the NS. An aliquot (0.24 ml) of this solution was sampled, and was subjected to measurement of NS using a cholesterol C test Wako. […]

Consider `O=C1OCC(Cc2cccc(O)c2)C1Cc1cccc(O)c1` (stereo not shown) [Enterolactone, enterolactone], for which the “proliferation of AH109A cells” value with AH109A cells (ENL 50 μM, in vitro) is “almost completely suppressed”. Moreover, in the assay on AH109A cells (in vitro comparison), the “inhibitory effect on proliferation, AH109A cells compared with normal M-cells” value is on record as “stronger inhibitory effect against AH109A cells than normal M-cells”. The “amounts of neutral sterol and bile acid excreted into the feces” value in assay [1] (ENL diet groups versus control diet group) is “significant and dose-dependent increase”. Moreover, in assay [1] (diet 10 ppm), the “Steroid excretion Bile acids” value is 18.7 ± 1.49^ab μmol/2 days and the “Steroid excretion Neutral sterols” value is 29.5 ± 2.7^b μmol/2 days. In assay [1] (diet 100 ppm), the “Steroid excretion Bile acids” value is given as 20.8 ± 1.89^b μmol/2 days and the “Steroid excretion Neutral sterols” value is on record as 30.9 ± 2.18^b μmol/2 days.
